# Biological target: T1, HDAC6 enzyme (Homo sapiens, UniProt Q9UBN7)
# T1 construct: transducing full length HDAC6 gene into Sf-9 insect cells; GST; purchased SignalChem; host or cells: Sf-9 insect cells
# T1 sequence (Q9UBN7 1-1215): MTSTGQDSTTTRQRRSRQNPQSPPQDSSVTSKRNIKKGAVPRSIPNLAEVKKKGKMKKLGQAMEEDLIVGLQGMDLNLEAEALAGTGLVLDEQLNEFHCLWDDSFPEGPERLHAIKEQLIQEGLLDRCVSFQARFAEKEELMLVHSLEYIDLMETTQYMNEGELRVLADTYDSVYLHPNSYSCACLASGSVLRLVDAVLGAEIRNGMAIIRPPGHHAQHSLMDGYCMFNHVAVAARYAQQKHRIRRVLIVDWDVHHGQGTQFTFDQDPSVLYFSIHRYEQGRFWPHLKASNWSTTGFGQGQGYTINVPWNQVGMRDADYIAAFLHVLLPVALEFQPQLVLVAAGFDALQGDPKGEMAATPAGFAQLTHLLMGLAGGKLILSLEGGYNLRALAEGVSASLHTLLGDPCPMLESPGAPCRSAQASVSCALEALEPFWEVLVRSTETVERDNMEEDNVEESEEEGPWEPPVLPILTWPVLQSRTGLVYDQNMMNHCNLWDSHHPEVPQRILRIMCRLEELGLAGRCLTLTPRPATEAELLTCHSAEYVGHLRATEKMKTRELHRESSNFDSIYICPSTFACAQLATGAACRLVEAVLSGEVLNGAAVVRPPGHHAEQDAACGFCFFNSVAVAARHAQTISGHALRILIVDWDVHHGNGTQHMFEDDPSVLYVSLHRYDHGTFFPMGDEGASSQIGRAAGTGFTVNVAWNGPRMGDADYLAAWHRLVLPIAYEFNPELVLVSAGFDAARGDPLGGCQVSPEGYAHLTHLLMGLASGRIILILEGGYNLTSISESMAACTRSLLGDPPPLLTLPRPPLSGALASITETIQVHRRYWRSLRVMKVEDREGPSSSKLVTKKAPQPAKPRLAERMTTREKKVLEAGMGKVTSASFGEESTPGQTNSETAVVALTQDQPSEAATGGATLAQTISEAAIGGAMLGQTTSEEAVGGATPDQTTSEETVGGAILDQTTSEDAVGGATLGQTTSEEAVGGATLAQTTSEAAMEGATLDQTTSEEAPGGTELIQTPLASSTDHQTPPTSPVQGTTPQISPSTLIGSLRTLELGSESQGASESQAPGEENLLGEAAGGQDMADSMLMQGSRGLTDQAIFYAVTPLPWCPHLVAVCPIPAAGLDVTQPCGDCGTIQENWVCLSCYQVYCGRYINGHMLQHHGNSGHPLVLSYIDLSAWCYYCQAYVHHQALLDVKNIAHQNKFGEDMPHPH
# Assay: HDAC6 enzyme inhibitory activity (HDAC-Glo I/II Assay kit)
# Type: biochemical
# Conditions: 10 μM; wells without enzyme = 100% inhibition; read-out: HDAC6 inhibitory rate (%) (10 μM)
# Outline: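 Test compound is preincubated 60 min at RT with full-length insect-cell HDAC6 in Tris-HCl pH 7.5 with 135 mM NaCl and 1 mM MgCl2. A 20 min room-temperature HDAC-Glo reaction follows, with luminescent read-out.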
row,SMILES,inhibition at 10 µM
1,"O=C(CC(F)(F)F)N[C@@H]1CCCC[C@H]1N1Cc2ccc(-c3nnc(C(F)F)o3)cc2C1=O [Example 13, N-((1R,2R)-2-(6-(5-(difluoromethyl)-1,3,4-oxadiazol-2-yl)-1-oxo-1,3-dihydro-2H-isoindol-2-yl)cyclohexyl)-3,3,3-trifluoropropanamide]",101%
2,"O=C1c2ccccc2CN1[C@@H]1CCCC[C@H]1N1Cc2ccc(-c3nnc(C(F)F)o3)cc2C1=O [Example 14, 6-(5-(difluoromethyl)-1,3,4-oxadiazol-2-yl)-2-((1R,2R)-2-(1-oxo-1,3-dihydro-2H-isoindol-2-yl)cyclohexyl)isoindolin-1-one]",100%
3,"O=C(N[C@@H]1CCCC[C@H]1N1Cc2ccc(-c3nnc(C(F)F)o3)cc2C1=O)[C@@H]1CC1(F)F [Example 18, (1S)—N-((1R,2R)-2-(6-(5-(difluoromethyl)-1,3,4-oxadiazol-2-yl)-1-oxo-1,3-dihydro-2H-isoindol-2-yl)cyclohexyl)-2,2-difluorocyclopropanecarboxamide]",100%
4,"O=C1CCCCN1[C@@H]1CCCC[C@H]1N1Cc2ccc(-c3nnc(C(F)F)o3)cc2C1=O [Example 20, 6-(5-(difluoromethyl)-1,3,4-oxadiazol-2-yl)-2-((1R,2R)-2-(2-oxopiperidin-1-yl)cyclohexyl)isoindolin-1-one]",100%
5,"O=C1OCCCN1[C@@H]1CCCC[C@H]1N1Cc2ccc(-c3nnc(C(F)F)o3)cc2C1=O [Example 21, 6-(5-(difluoromethyl)-1,3,4-oxadiazol-2-yl)-2-((1R,2R)-2-(2-oxo-1,3-oxazinan-3-yl)cyclohexyl)isoindolin-1-one]",100%
6,"O=C1OCCN1[C@@H]1CCCC[C@H]1N1Cc2ccc(-c3nnc(C(F)F)o3)cc2C1=O [Example 22, 6-(5-(difluoromethyl)-1,3,4-oxadiazol-2-yl)-2-((1R,2R)-2-(2-oxo-1,3-oxazolidin-3-yl)cyclohexyl)isoindolin-1-one]",98%
7,"O=C(CC1(O)CCCC1)N[C@@H]1CCCC[C@H]1N1Cc2ccc(-c3nnc(C(F)F)o3)cc2C1=O [Example 26, N-((1R,2R)-2-(6-(5-(difluoromethyl)-1,3,4-oxadiazol-2-yl)-1-oxo-1,3-dihydro-2H-isoindol-2-yl)cyclohexyl)-2-(1-hydroxycyclopentyl)acetamide]",98%
8,"O=C(N[C@@H]1CCCC[C@H]1N1Cc2ccc(-c3nnc(C(F)F)o3)cc2C1=O)c1cocn1 [Example 27, N-((1R,2R)-2-(6-(5-(difluoromethyl)-1,3,4-oxadiazol-2-yl)-1-oxo-1,3-dihydro-2H-isoindol-2-yl)cyclohexyl)-1,3-oxazole-4-carboxamide]",100%
9,"O=C(N[C@@H]1CCCC[C@H]1N1Cc2ccc(-c3nnc(C(F)F)o3)cc2C1=O)C(F)F [Example 28, N-((1R,2R)-2-(6-(5-(difluoromethyl)-1,3,4-oxadiazol-2-yl)-1-oxo-1,3-dihydro-2H-isoindol-2-yl)cyclohexyl)-2,2-difluoroacetamide]",100%
10,"O=C1c2cc(-c3nnc(C(F)F)o3)ccc2CN1[C@@H]1CCCC[C@H]1NC(=O)C(F)(F)C(F)(F)F [Example 29, N-((1R,2R)-2-(6-(5-(difluoromethyl)-1,3,4-oxadiazol-2-yl)-1-oxo-1,3-dihydro-2H-isoindol-2-yl)cyclohexyl)-2,2,3,3,3-pentafluoropropanamide]",101%
11,"O=C1COCCN1[C@@H]1CCCC[C@H]1N1Cc2ccc(-c3nnc(C(F)F)o3)cc2C1=O [Example 30, 6-(5-(difluoromethyl)-1,3,4-oxadiazol-2-yl)-2-((1R,2R)-2-(3-oxomorpholin-4-yl)cyclohexyl) isoindolin-1-one]",97%
12,"O=C1NCCCN1[C@@H]1CCCC[C@H]1N1Cc2ccc(-c3nnc(C(F)F)o3)cc2C1=O [Example 31, 6-(5-(difluoromethyl)-1,3,4-oxadiazol-2-yl)-2-((1R,2R)-2-(2-oxotetrahydropyrimidin-1(2H)-yl)cyclohexyl) isoindolin-1-one]",97%
13,"O=C(N[C@@H]1CCCC[C@H]1N1Cc2ccc(-c3nnc(C(F)F)o3)cc2C1=O)C1CC(F)(F)C1 [Example 33, N-((1R,2R)-2-(6-(5-(difluoromethyl)-1,3,4-oxadiazol-2-yl)-1-oxo-1,3-dihydro-2H-isoindol-2-yl)cyclohexyl)-3,3-difluorocyclobutanecarboxamide]",97%

# The next lines start with the values.
row,inhibition at 10 µM,SMILES
1,98%,"O=C(N[C@@H]1CCCC[C@H]1N1Cc2ccc(-c3nnc(C(F)F)o3)cc2C1=O)C1CC1 [Example 11, N-((1R,2R)-2-(6-(5-(difluoromethyl)-1,3,4-oxadiazol-2-yl)-1-oxo-1,3-dihydro-2H-isoindol-2-yl)cyclohexyl)cyclopropanecarboxamide]"
2,100%,"O=C(N[C@@H]1CCCC[C@H]1N1Cc2ccc(-c3nnc(C(F)F)o3)cc2C1=O)C1CCC1 [Example 12, N-((1R,2R)-2-(6-(5-(difluoromethyl)-1,3,4-oxadiazol-2-yl)-1-oxo-1,3-dihydro-2H-isoindol-2-yl)cyclohexyl)cyclobutanecarboxamide]"
3,98%,"CC1(C(=O)N[C@@H]2CCCC[C@H]2N2Cc3ccc(-c4nnc(C(F)F)o4)cc3C2=O)CC1 [Example 15, N-((1R,2R)-2-(6-(5-(difluoromethyl)-1,3,4-oxadiazol-2-yl)-1-oxo-1,3-dihydro-2H-isoindol-2-yl)cyclohexyl)-1-methylcyclopropanecarboxamide]"
4,100%,"CC1(C(=O)N[C@@H]2CCCC[C@H]2N2Cc3ccc(-c4nnc(C(F)F)o4)cc3C2=O)COC1 [Example 16, N-((1R,2R)-2-(6-(5-(difluoromethyl)-1,3,4-oxadiazol-2-yl)-1-oxo-1,3-dihydro-2H-isoindol-2-yl)cyclohexyl)-3-methyloxetane-3-carboxamide]"
5,101%,"N#CC1(C(=O)N[C@@H]2CCCC[C@H]2N2Cc3ccc(-c4nnc(C(F)F)o4)cc3C2=O)CC1 [Example 17, 1-cyano-N-((1R,2R)-2-(6-(5-(difluoromethyl)-1,3,4-oxadiazol-2-yl)-1-oxo-1,3-dihydro-2H-isoindol-2-yl)cyclohexyl)cyclopropanecarboxamide]"
6,101%,"O=C1c2cc(-c3nnc(C(F)F)o3)ccc2CN1[C@@H]1CCCC[C@H]1NC(=O)C1(F)CC1 [Example 19, N-((1R,2R)-2-(6-(5-(difluoromethyl)-1,3,4-oxadiazol-2-yl)-1-oxo-1,3-dihydro-2H-isoindol-2-yl)cyclohexyl)-1-fluorocyclopropanecarboxamide]"
7,99%,"O=C1c2cc(-c3nnc(C(F)F)o3)ccc2CN1[C@@H]1CCCC[C@H]1NC(=O)C1(C(F)F)CC1 [Example 23, 1-(difluoromethyl)-N-((1R,2R)-2-(6-(5-(difluoromethyl)-1,3,4-oxadiazol-2-yl)-1-oxo-1,3-dihydro-2H-isoindol-2-yl)cyclohexyl)cyclopropanecarboxamide]"
8,98%,"O=C1c2cc(-c3nnc(C(F)F)o3)ccc2CN1[C@@H]1CCCC[C@H]1NC(=O)C1(C(F)(F)F)CCC1 [Example 24, N-((1R,2R)-2-(6-(5-(difluoromethyl)-1,3,4-oxadiazol-2-yl)-1-oxo-1,3-dihydro-2H-isoindol-2-yl)cyclohexyl)-1-(trifluoromethyl)cyclobutanecarboxamide]"
9,99%,"COC1(C(=O)N[C@@H]2CCCC[C@H]2N2Cc3ccc(-c4nnc(C(F)F)o4)cc3C2=O)CCC1 [Example 25, N-((1R,2R)-2-(6-(5-(difluoromethyl)-1,3,4-oxadiazol-2-yl)-1-oxo-1,3-dihydro-2H-isoindol-2-yl)cyclohexyl)-1-methoxycyclobutanecarboxamide]"
10,101%,"O=C1c2cc(-c3nnc(C(F)F)o3)ccc2CN1[C@@H]1CCCC[C@H]1NC(=O)C1(C(F)(F)F)CC1 [Example 32, N-((1R,2R)-2-(6-(5-(difluoromethyl)-1,3,4-oxadiazol-2-yl)-1-oxo-1,3-dihydro-2H-isoindol-2-yl)cyclohexyl)-1-(trifluoromethyl)cyclopropanecarboxamide]"

# Source: patent publication US10435399B2, “HDAC6 inhibitory heterocyclic compound” (TAKEDA PHARMACEUTICAL COMPANY LIMITED, priority 2017, dated 2019)
